{
  "source": "patent US8552048B2",
  "about": "“Phosphoramidate alkylator prodrugs for the treatment of cancer” (Threshold Pharmaceuticals, Inc., priority 2006, dated 2013)",
  "assay": "Pharmacokinetics in Sprague-Dawley rats (single dose i.v. and p.o.)",
  "format": "in vivo, male Sprague-Dawley rats",
  "experimental": "Pharmacokinetic studies were performed in male CD-1 (50 mg/kg i.p. or orally (p.o.)) or female nude mice (50 mg/kg i.v. or i.p.), male Sprague-Dawley rats (1, 5, 20 and 50 mg/kg i.v. and 100 mg/kg, p.o.), beagle dogs (20 mg/kg, i.v.) and cynomologus monkeys (20 mg/kg i.v.). Plasma TH302 concentrations were analyzed using a LC/MS method and the pharmacokinetic parameters computed using a noncompartmental method. Interspecies scaling was performed according to standard methods.\nTH302 was dissolved in 50% PEG400/Saline to obtain a final concentration of 25 mg/mL, and then was further diluted to yield 25, 10, 2.5 and 0.5 mg/mL formulations of TH302 (pH The formulations were prepared just before dosing. The concentration of TH302 in dosing solution was confirmed by HPLC-UV. Male Sprague Dawley rats (body weight: 200 g to 230 g) were used in this study. Before the pharmacokinetic studies, animals were randomly assigned to four treatment groups cannulated in the carotid artery for serial blood sampling. All rats were administered a single intravenous bolus dose over one minute via the tail vein. The concentrations of TH302 in plasma were determined using a high performance liquid chromatography/mass spectrometry (HPLC/MS/MS) method. […]",
  "key": {"[1]": {"details": "rats, 1 mg/kg i.v. bolus, individual animals, 1 mg/kg"}, "[2]": {"details": "rats, 5 mg/kg i.v. bolus, individual animals, 5 mg/kg"}, "[3]": {"details": "rats, 20 mg/kg i.v. bolus, individual animals, 20 mg/kg"}, "[4]": {"details": "rats, 50 mg/kg i.v. bolus, individual animals, 50 mg/kg"}},
  "note": "Where “and” joins values, the source holds several entries; their conditions need not be identical. Equal entries are not always repeated. Where two headings read alike, the source gives them in different places.",
  "data": [
    {"smiles": "Cn1c(COP(=O)(NCCBr)NCCBr)cnc1[N+](=O)[O-]", "note": "[TH302]", "values": [
      {"measurement": "AUC(0-t)", "setting": "male, Sprague-Dawley, rat, plasma, iv, 20 mg/kg, rats, 20 mg/kg i.v. bolus, individual animals, read-out: AUC(0-t)", "value": 2830, "unit": "ng·h/mL"},
      {"measurement": "clearance", "setting": "male, Sprague-Dawley, rat, plasma, iv, 20 mg/kg, rats, 20 mg/kg i.v. bolus, individual animals, read-out: CL (converted)", "value": 114, "unit": "mL/min/kg"},
      {"measurement": "Cmax", "setting": "male, Sprague-Dawley, rat, plasma, iv, 20 mg/kg, rats, 20 mg/kg i.v. bolus, individual animals, read-out: Cmax", "value": 13400, "unit": "ng/mL"},
      {"measurement": "Vd", "setting": "male, Sprague-Dawley, rat, plasma, iv, 20 mg/kg, rats, 20 mg/kg i.v. bolus, individual animals, read-out: Vss", "value": 2.89, "unit": "L/kg"},
      {"measurement": "AUC(0-inf)", "setting": "male, Sprague-Dawley, rat, plasma, iv, 50 mg/kg, rats, 50 mg/kg i.v. bolus, MEAN", "value": 8470, "unit": "ng·h/mL"},
      {"measurement": "AUC(0-t)", "setting": "male, Sprague-Dawley, rat, plasma, iv, 50 mg/kg, rats, 50 mg/kg i.v. bolus, MEAN, read-out: AUC(0-t)", "value": 8460, "unit": "ng·h/mL"},
      {"measurement": "Cmax", "setting": "male, Sprague-Dawley, rat, plasma, iv, 50 mg/kg, rats, 50 mg/kg i.v. bolus, MEAN, read-out: Cmax", "value": 35500, "unit": "ng/mL"},
      {"measurement": "MRT", "setting": "male, Sprague-Dawley, rat, plasma, iv, 50 mg/kg, rats, 50 mg/kg i.v. bolus, MEAN, read-out: MRT", "value": 17.4, "unit": "min"},
      {"measurement": "AUC(0-inf)", "setting": "male, Sprague-Dawley, rat, plasma, iv, 50 mg/kg, rats, 50 mg/kg i.v. bolus, individual animals", "value": 8830, "unit": "ng·h/mL"},
      {"measurement": "AUC(0-t)", "setting": "male, Sprague-Dawley, rat, plasma, iv, 50 mg/kg, rats, 50 mg/kg i.v. bolus, individual animals, read-out: AUC(0-t)", "value": 8830, "unit": "ng·h/mL"},
      {"measurement": "clearance", "setting": "male, Sprague-Dawley, rat, plasma, iv, 50 mg/kg, rats, 50 mg/kg i.v. bolus, individual animals, read-out: CL (converted)", "value": 94.3, "unit": "mL/min/kg"},
      {"measurement": "Cmax", "setting": "male, Sprague-Dawley, rat, plasma, iv, 50 mg/kg, rats, 50 mg/kg i.v. bolus, individual animals, read-out: Cmax", "value": 37200, "unit": "ng/mL"},
      {"measurement": "MRT", "setting": "male, Sprague-Dawley, rat, plasma, iv, 50 mg/kg, rats, 50 mg/kg i.v. bolus, individual animals, read-out: MRT", "value": 17.4, "unit": "min"},
      {"measurement": "Vd", "setting": "male, Sprague-Dawley, rat, plasma, iv, 50 mg/kg, rats, 50 mg/kg i.v. bolus, individual animals, read-out: Vss", "value": 1.63, "unit": "L/kg"},
      {"measurement": "AUC", "setting": "male, Sprague-Dawley, rat, plasma, iv, 50 mg/kg, rats, i.v. bolus, up to 8 mg/kg human equivalent daily dose, read-out: exposure of TH302, AUC", "value": "~8500", "unit": "ng·h/mL"},
      {"measurement": "clearance", "setting": "male, Sprague-Dawley, rat, plasma, iv, rats, i.v. dose 1-50 mg/kg, range of means, read-out: Mean Cl", "value": "78.2 to 102", "unit": "mL/min/kg"},
      {"measurement": "Vd", "setting": "male, Sprague-Dawley, rat, plasma, iv, rats, i.v. dose 1-50 mg/kg, range of means, read-out: mean Vss", "value": "1.67 to 5.09", "unit": "L/kg"},
      {"measurement": "half-life", "setting": "male, Sprague-Dawley, rat, plasma, iv, rats, i.v. dose 1-50 mg/kg, range of means, read-out: mean terminal plasma t1/2", "value": "79.2 to 262", "unit": "min"},
      {"measurement": "Tmax", "setting": "male, Sprague-Dawley, rat, plasma, iv, rats, 1 mg/kg i.v. bolus, individual animals", "value": 1.8, "unit": "min"},
      {"measurement": "Tmax", "setting": "male, Sprague-Dawley, rat, plasma, iv, rats, 5 mg/kg i.v. bolus, individual animals", "value": 1.8, "unit": "min"},
      {"measurement": "Tmax", "setting": "male, Sprague-Dawley, rat, plasma, iv, rats, 20 mg/kg i.v. bolus, individual animals", "value": 1.8, "unit": "min"},
      {"measurement": "Tmax", "setting": "male, Sprague-Dawley, rat, plasma, iv, rats, 50 mg/kg i.v. bolus, individual animals", "value": 1.8, "unit": "min"},
      {"measurement": "Vβ", "setting": "rats, 1 mg/kg i.v. bolus, MEAN", "value": 13.55, "unit": "L/kg"},
      {"measurement": "AUC(0-t)", "setting": "[1]", "value": "273.70 ng·h/mL and 202.22 ng·h/mL"},
      {"measurement": "AUC(0-∞)", "setting": "[1]", "value": "282.01 ng·h/mL and 203.34 ng·h/mL"},
      {"measurement": "CL", "setting": "[1]", "value": 59.2, "unit": "mL/min/kg"},
      {"measurement": "Cmax", "setting": "[1]", "value": "990.12 ng/mL and 732.20 ng/mL"},
      {"measurement": "MRT", "setting": "[1]", "value": 61.8, "unit": "min"},
      {"measurement": "T1/2", "setting": "[1]", "value": "130 min and 131 min"},
      {"measurement": "Vss", "setting": "[1]", "value": 2.82, "unit": "L/kg"},
      {"measurement": "Vβ", "setting": "[1]", "value": "14.19 L/kg and 11.03 L/kg and 15.45 L/kg"},
      {"measurement": "Vβ", "setting": "rats, 5 mg/kg i.v. bolus, MEAN", "value": 30.66, "unit": "L/kg"},
      {"measurement": "AUC(0-t)", "setting": "[2]", "value": 868.22, "unit": "ng·h/mL"},
      {"measurement": "AUC(0-∞)", "setting": "[2]", "value": 919.39, "unit": "ng·h/mL"},
      {"measurement": "CL", "setting": "[2]", "value": 90.7, "unit": "mL/min/kg"},
      {"measurement": "Cmax", "setting": "[2]", "value": 3803.81, "unit": "ng/mL"},
      {"measurement": "MRT", "setting": "[2]", "value": "27 min and 81.6 min"},
      {"measurement": "T1/2", "setting": "[2]", "value": "73.2 min and 377 min"},
      {"measurement": "Vβ", "setting": "[2]", "value": "11.99 L/kg and 49.33 L/kg"},
      {"measurement": "Vβ", "setting": "rats, 20 mg/kg i.v. bolus, MEAN", "value": 41.04, "unit": "L/kg"},
      {"measurement": "AUC(0-t)", "setting": "[3]", "value": "3380.61 ng·h/mL and 3597.80 ng·h/mL"},
      {"measurement": "AUC(0-∞)", "setting": "[3]", "value": "3387.13 ng·h/mL and 3618.51 ng·h/mL"},
      {"measurement": "CL", "setting": "[3]", "value": 92.2, "unit": "mL/min/kg"},
      {"measurement": "Cmax", "setting": "[3]", "value": "12009.10 ng/mL and 15053.50 ng/mL"},
      {"measurement": "MRT", "setting": "[3]", "value": "24.6 min and 22.2 min"},
      {"measurement": "T1/2", "setting": "[3]", "value": "564 min and 64.8 min and 159 min"},
      {"measurement": "Vss", "setting": "[3]", "value": 1.68, "unit": "L/kg"},
      {"measurement": "Vβ", "setting": "[3]", "value": "92.86 L/kg and 9.16 L/kg and 21.10 L/kg"},
      {"measurement": "Vβ", "setting": "rats, 50 mg/kg i.v. bolus, MEAN", "value": 11.41, "unit": "L/kg"},
      {"measurement": "AUC(0-t)", "setting": "[4]", "value": "8482.72 ng·h/mL and 8083.24 ng·h/mL"},
      {"measurement": "AUC(0-∞)", "setting": "[4]", "value": "8488.15 ng·h/mL and 8102.61 ng·h/mL"},
      {"measurement": "CL", "setting": "[4]", "value": "98.2 mL/min/kg and 103 mL/min/kg"},
      {"measurement": "Cmax", "setting": "[4]", "value": "37277.10 ng/mL and 32033.40 ng/mL"},
      {"measurement": "MRT", "setting": "[4]", "value": "18 min and 15.6 min"},
      {"measurement": "T1/2", "setting": "[4]", "value": "46.2 min and 56.4 min and 134 min"},
      {"measurement": "Vss", "setting": "[4]", "value": "1.68 L/kg and 1.70 L/kg"},
      {"measurement": "Vβ", "setting": "[4]", "value": "6.28 L/kg and 7.99 L/kg and 19.94 L/kg"},
      {"measurement": "time of mean peak plasma concentration", "setting": "rats, 100 mg/kg p.o., first sampled time point", "value": 15, "unit": "min"},
      {"measurement": "linearity of pharmacokinetics", "setting": "rats, 1, 5, 20 and 50 mg/kg i.v.", "value": "linear pharmacokinetics"}
    ]}
  ]
}
